SMILES strings stand for the structures. Activity calls are given as the source filed them. No rule for the calls is given here.

In general, IC50 refers to the concentration needed to halve the response being measured.

The target of this experiment is Nuclear receptor coactivator 1 (Homo sapiens) (UniProt Q15788). Nature of the experiment: NCOA1 reporter inhibition potency – cell-based, luminescence, counter-screen for SRC3 inhibitor project, dose response (AID 602168). As to conditions: Cell-based SRC1 luciferase reporter. Background: The purpose of a counterscreen is to sort out artefacts and off-target activity.
Chain of Nuclear receptor coactivator 1 (Homo sapiens) (Q15788 whole entry, looked up): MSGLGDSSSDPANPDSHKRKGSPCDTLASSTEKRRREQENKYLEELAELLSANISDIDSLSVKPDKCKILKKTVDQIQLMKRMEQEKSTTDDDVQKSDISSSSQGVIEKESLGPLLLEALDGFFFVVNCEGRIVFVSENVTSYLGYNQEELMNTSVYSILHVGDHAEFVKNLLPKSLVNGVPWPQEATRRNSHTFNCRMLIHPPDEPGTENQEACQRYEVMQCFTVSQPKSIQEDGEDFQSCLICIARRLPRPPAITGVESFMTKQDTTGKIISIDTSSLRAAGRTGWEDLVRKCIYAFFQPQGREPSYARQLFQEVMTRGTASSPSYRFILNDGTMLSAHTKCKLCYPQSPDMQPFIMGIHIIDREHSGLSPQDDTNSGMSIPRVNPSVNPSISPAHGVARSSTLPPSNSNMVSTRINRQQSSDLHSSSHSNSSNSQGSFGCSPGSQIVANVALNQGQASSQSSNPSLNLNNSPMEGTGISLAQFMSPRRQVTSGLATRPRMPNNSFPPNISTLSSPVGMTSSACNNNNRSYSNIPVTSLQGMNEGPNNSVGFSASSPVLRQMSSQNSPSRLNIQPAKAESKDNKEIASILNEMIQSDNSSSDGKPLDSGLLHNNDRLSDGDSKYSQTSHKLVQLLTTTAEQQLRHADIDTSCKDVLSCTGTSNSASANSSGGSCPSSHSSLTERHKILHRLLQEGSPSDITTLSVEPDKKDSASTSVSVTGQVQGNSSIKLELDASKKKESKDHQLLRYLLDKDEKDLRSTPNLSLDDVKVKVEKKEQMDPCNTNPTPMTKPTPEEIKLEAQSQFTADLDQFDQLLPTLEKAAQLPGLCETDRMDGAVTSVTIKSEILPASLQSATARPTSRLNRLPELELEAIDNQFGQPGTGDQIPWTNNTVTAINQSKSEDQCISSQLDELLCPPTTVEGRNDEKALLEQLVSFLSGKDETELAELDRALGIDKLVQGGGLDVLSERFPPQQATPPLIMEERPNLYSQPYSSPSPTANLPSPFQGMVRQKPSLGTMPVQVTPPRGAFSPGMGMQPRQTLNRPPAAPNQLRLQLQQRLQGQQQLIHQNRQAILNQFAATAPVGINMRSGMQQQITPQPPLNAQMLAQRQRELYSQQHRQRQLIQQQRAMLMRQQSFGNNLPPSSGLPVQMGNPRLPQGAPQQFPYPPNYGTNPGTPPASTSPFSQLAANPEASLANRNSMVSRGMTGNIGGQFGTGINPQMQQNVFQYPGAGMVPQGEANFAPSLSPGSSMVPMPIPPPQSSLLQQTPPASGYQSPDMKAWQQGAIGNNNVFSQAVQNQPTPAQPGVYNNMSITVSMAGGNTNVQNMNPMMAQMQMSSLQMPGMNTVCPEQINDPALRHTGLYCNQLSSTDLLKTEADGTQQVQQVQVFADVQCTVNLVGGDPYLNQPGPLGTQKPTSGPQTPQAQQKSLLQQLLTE
Consider `CCc1ccc(-c2nc(CSCC(=O)NCc3ccco3)c(C)o2)cc1`, for which the IC50 was > 35.9 µM (inactive).
Turning to `Cc1cc(-c2nnc(SCC(=O)Nc3ccccc3C(F)(F)F)o2)c(C)n1-c1ccccc1`, the IC50 is > 35.9 µM (inactive).
As to `COC(=O)c1cccc2c1-c1ccccc1/C2=N/O`, the IC50 was 6.3 µM.
The same measure for `CC[C@@]1(O)C(=O)OCc2c1cc1n(c2=O)Cc2cc3c(NC(=O)CN)cccc3nc2-1`: 3.78 µM.
Take `COc1ccc(-c2nsc3c(N4CCCCC4)ncnc23)cc1`: the IC50 was > 35.9 µM (inactive).
The same measure for `Cc1cccc(CN2CCN(C(=O)CCl)CC2)c1`: > 35.9 µM (inactive); for `Cc1ccc2nc(C(F)(F)F)c(C#N)c(N)c2c1`: “inactive”.
The same measure for `COc1cc2[nH]c3c(Cl)ncnc3c2cc1OC`: > 35.9 µM (inactive); for `Cc1cccc(Oc2sc(C(=O)c3ccccc3)c(N)c2C#N)c1`: “inactive”; for `CN1C(=O)C2(C(C#N)=C(N)N(c3cc(Cl)cc(Cl)c3)C3=C2C(=O)CCC3)c2ccccc21` (stereo unspecified): > 35.9 µM (inactive).
In the case of `O=C(COC(=O)c1ccc[nH]c1=O)Nc1ccc(N2CCCCC2)cc1` it was > 35.9 µM (inactive).
As for `c1ccc2c(c1)Nc1ccncc1S2`, the IC50 entry is “inactive”.
In the case of `c1csc(Cc2nn3c(-c4ccncc4)nnc3s2)c1` it was “inactive”.
In the case of `CCOC(=O)c1cc2sccc2n1CC(=O)N1CCc2ccccc21` it was > 35.9 µM (inactive); in that of `Cc1cccc(C)c1NS(=O)(=O)c1ccc(-c2cnc(C3CC3)o2)cc1`, “inactive”; in that of `C[C@@H](C(=O)Nc1ccc2c(c1)OCCO2)n1c(=O)[nH]c2ccccc2c1=O`, > 35.9 µM (inactive).
In the case of `O=[N+]([O-])c1ccc(N(CCO)CCO)c2c1no[n+]2[O-]` it was “inactive”; in that of `CS(=O)c1nc(-c2ccc(Br)cc2)cc(-c2ccccc2)c1C#N` (stereo unspecified), “inactive”.
For `O=C(COc1ccc(Cl)cc1)Nc1ccc(C(=O)NCc2cccnc2)cc1`, the IC50 is 9.27 µM.
In the case of `CC(=O)OCCN1c2ccccc2Sc2cnccc21` it was “inactive”.
In the case of `O=C(CCl)NC(Cc1ccccc1)c1ccccc1` (stereo unspecified) it was “inactive”; in that of `CCOc1ccc(/C=C2\SC(=S)N(CCCC(=O)NCCCN3CCOCC3)C2=O)cc1`, > 35.9 µM (inactive).
`CC(=O)NC(c1cc(Cl)c2cccnc2c1O)C(C)C` (stereo unspecified): the IC50 is 7.94 µM.
The same measure for `CC(C)(C)n1ncc2c(=O)n(CC(=O)OCc3ccccc3)cnc21`: > 35.9 µM (inactive); for `C(=Cc1cnc2ccccc2n1)c1ccc2c(c1)OCO2`: “inactive”; for `C=CCOc1ccc(/C=C2\SC(=S)N(CCC(=O)O)C2=O)cc1`: 6.96 µM.
The same measure for `Cc1ccc(N=Nc2ccc3ccccc3c2O)cc1`: > 35.9 µM (inactive); for `O=c1[nH]c2ccccc2n1C1CCN(C(c2cccc3ccccc23)c2nnnn2-c2ccc3c(c2)OCCO3)CC1` (stereo unspecified): “inactive”; for `O=C(Nc1ccc(OCC(=O)N2CCOCC2)cc1)c1cncc(Br)c1`: “inactive”.
The same measure for `O=C(Nc1cccnc1)c1ccc(C(=O)Nc2cccnc2)cc1`: > 35.9 µM (inactive).
Regarding `C#CC(=O)N(c1cc(OC)ccc1OC)C(C(=O)NC1CCCC1)c1cccs1` (stereo unspecified), the IC50 was > 35.9 µM (inactive).
For the compound `COc1cc(/C=N/NC(=Nc2ccc(C)cc2)c2nc3ccccc3s2)ccc1O`, the IC50 was 8.17 µM.
`COC(=O)c1cc(S(=O)(=O)NCCc2ccc(Cl)cc2)c[nH]1`: the IC50 entry was “inactive”.
The same measure for `CN(C)c1ccc(C(=S)Nc2ccccc2)cc1`: > 35.9 µM (inactive).
In the case of `C=CC[n+]1c(-c2ccc(C)cc2)csc1Nc1ccc(NC(C)=O)cc1` it was > 35.9 µM (inactive).
In the case of `COc1cccc(/C=N/Nc2cc(-n3nc(C)cc3-c3ccccc3)ncn2)c1O` it was “inactive”; in that of `O=C(CNc1cccc([N+](=O)[O-])c1)N/N=C/c1ccc([N+](=O)[O-])o1`, > 35.9 µM (inactive).
Regarding `Cc1ccc(/C=C2\SC(=S)N(CCCC(=O)NC3CCCC3)C2=O)cc1`, the IC50 was 3.26 µM.
In the case of `CC1(C)N=C(N)N=C(N)N1CCCCc1ccccc1` it was 4.58 µM.
In the case of `CCCS(=O)(=O)Nc1ccc(Nc2c3ccccc3nc3ccccc23)c(OC)c1`, the IC50 is 0.525 µM.
The same measure for `Cc1ccc(/C=C2/SC(=S)N(CCCC(=O)Nc3ccc(O)cc3)C2=O)cc1`: > 35.9 µM (inactive); for `CCn1ccnc1CN(C)Cc1cn[nH]c1-c1ccc(OC)c(F)c1`: 9.9 µM.
The same measure for `Cc1ccc2occ(/C=N/NC(=O)[C@@H](N)Cc3ccccc3)c(=O)c2c1`: “inactive”.
In the case of `Cc1c(Cl)cccc1NC(=O)Nc1ccccc1C(N)=O` it was > 35.9 µM (inactive).
For the compound `CCOc1ccccc1-n1c(SCC(=O)Nc2ccccc2C(=O)O)nc2ccccc2c1=O`, the IC50 is > 35.9 µM (inactive).
In the case of `CCOc1ccc(Nc2cc(C)nc(-n3nc(C)cc3C)n2)cc1` it was > 35.9 µM (inactive).
Take `CN(C)/C=C/C(=O)c1ccc2noc(-c3ccccc3)c2c1`: the IC50 entry is “inactive”.
The same measure for `Cc1nc(N2CCC(C(N)=O)CC2)c2c(-c3cccs3)csc2n1`: 8.33 µM; for `Cn1cnc([N+](=O)[O-])c1Sc1nc(N)nc2c1ncn2C1OC(CO)C(O)C1O` (stereo unspecified): > 35.9 µM (inactive).
In the case of `O=C(N/N=C\c1ccc([N+](=O)[O-])o1)C1COc2ccccc2O1` (stereo unspecified) it was > 35.9 µM (inactive); in that of `O=C(NC1CCCCC1)C(c1cccnc1)N(C(=O)CCl)c1cccc(Cl)c1` (stereo unspecified), “inactive”.
In the case of `CCOC(=O)C(C(C)=O)c1c(Br)c(O)c(O)c2c(C(=O)c3ccc(C)cc3)coc12` (stereo unspecified) it was > 35.9 µM (inactive); in that of `CCc1ccc(/C=C2\SC(=S)N(CCCC(=O)NCCCN3CCOCC3)C2=O)cc1`, “inactive”.
As for `COc1ccc(C)cc1NS(=O)(=O)c1ccc(NC(=O)CN(c2cc([N+](=O)[O-])ccc2C)S(C)(=O)=O)cc1`, the IC50 result is “inactive”.
`O=C(Nc1ccccc1Oc1ccccc1)c1cc([N+](=O)[O-])ccc1Cl`: the IC50 result was “inactive”.
In the case of `O=c1[nH]c(O)c(N=Nc2ccc3c(c2)OCCO3)c(=O)[nH]1` it was > 35.9 µM (inactive); in that of `O=C(CC1CS(=O)(=O)CC1CC(=O)Nc1ccc2c(c1)OCCO2)Nc1ccc2c(c1)OCCO2` (stereo unspecified), > 35.9 µM (inactive).
In the case of `Nc1ccc(-c2cc3ccccc3oc2=O)cc1` it was > 35.9 µM (inactive); in that of `O=C(N/N=C/c1cc(Br)c(Br)s1)c1ccncc1`, “inactive”; in that of `O=c1[nH]c2ccccc2n1C1CCN(C(c2ccccc2)c2nnnn2Cc2ccccc2)CC1` (stereo unspecified), “inactive”.
In the case of `Clc1ccc(-c2csc3ncnc(NCCN4CCOCC4)c23)cc1` it was “inactive”; in that of `CNC(=O)c1cccn(Cc2ccc(C(F)(F)F)cc2)c1=O`, > 35.8 µM (inactive); in that of `C=CCOn1c(C)c(C(C)=O)c2c3nonc3ccc21`, 9.06 µM.
Take `CCN(c1cccc(C)c1)c1ncnc2nc[nH]c12`: the IC50 result is “inactive”.
The same measure for `COc1ccc(COC(=O)C2=C(C)NC(=O)NC2c2ccc(F)cc2)cc1` (stereo unspecified): “inactive”; for `O=C(N/N=C(\c1ccccc1)c1ccccn1)c1ccccc1Cl`: “inactive”.
In the case of `CCOC(=O)CC(=O)CSc1nccc(-c2cccnc2)n1` it was > 35.9 µM (inactive); in that of `CC(=O)N1CCN(c2ncnc3ccccc23)CC1`, “inactive”.
In the case of `CCCCN1C=CC(=C2C(=O)c3ccccc3C2=O)C=C1`, the IC50 was > 35.9 µM (inactive).
In the case of `O=c1[nH]c2ccccc2n1C1CCN(C(c2cc3ccccc3o2)c2nnnn2Cc2ccccc2)CC1` (stereo unspecified) it was “inactive”.
For `CN(Cc1cnc2nc(N)nc(N)c2n1)c1ccc(C(=O)NC(CCC(=O)O)C(=O)O)c2ccccc12` (stereo unspecified), the IC50 is > 35.9 µM (inactive).
Turning to `Fc1ccc(CSc2nnc(-c3ccncc3)o2)cc1`, the IC50 is 3.43 µM.
For `O=C(OCCC12CC3CC(CC(C3)C1)C2)c1ccc(NCc2cc(O)ccc2O)cc1`, the IC50 result is “inactive”.
In the case of `CC(=O)Nc1ccc(SCC(=O)c2cc(C)n(-c3ccccc3F)c2C)cc1` it was > 12 µM (inactive).
Take `CN1C(=O)C2(C(C#N)=C(N)N(c3cc(Cl)cc(Cl)c3)C3=C2C(=O)CC(C)(C)C3)c2ccccc21` (stereo unspecified): the IC50 is > 35.9 µM (inactive).
For `c1cc2[nH]snc2c2nc(C3CC3)nc12`, the IC50 result is “inactive”.
With `CC(C)(C)c1cc(C(=O)N/N=C/c2ccc(O)cc2)n(-c2ccccc2)n1`, the IC50 was > 35.9 µM (inactive).
The same measure for `CO[C@@]12[C@@H]3N[C@@H]3CN1C1=C(C(=O)C(N)=C(C)C1=O)[C@@H]2COC(N)=O`: > 35.8 µM (inactive); for `CCOc1ccc(/C=C2\SC(=S)N(CCC(=O)O)C2=O)cc1`: 9.2 µM; for `CCOc1ccc(-c2cc(C)n3nc(C(N)=O)cc3n2)cc1`: “inactive”.
The same measure for `C/C(=N\NC(=S)Nc1cc(S(=O)(=O)N2CCOCC2)ccc1Cl)c1ccccc1F`: “inactive”; for `O=c1[nH]c2ccccc2n1C1CCN(C(c2ccccc2)c2nnnn2-c2ccc3c(c2)OCCO3)CC1` (stereo unspecified): “inactive”; for `O=C(CCl)Nc1cccc(-c2cnc3ccccc3n2)c1`: “inactive”.
The same measure for `O=C(CC(Nc1ccc(Cl)cc1Cl)C(=O)O)c1ccccc1` (stereo unspecified): > 35.9 µM (inactive); for `Cc1nc2c(-c3ccc(Cl)cc3)cnn2c(N)c1-c1ccc(F)cc1`: > 35.9 µM (inactive).
As for `Brc1ccc2ncc3ccccc3c2c1`, the IC50 entry was “inactive”.
With `COc1ccc(C(C(=O)NC2CCCCC2)N(C(=O)CCl)c2ccc(Cl)cc2)cc1` (stereo unspecified), the IC50 result was “inactive”.
`Oc1ccc(C=NNc2ccccn2)c(O)c1`: the IC50 was > 35.9 µM (inactive).
In the case of `O=[N+]([O-])c1cccc2c1ccc1ncccc12` it was “inactive”.
`COc1ccc(CCNC(=O)c2nnn(-c3ccc4c(c3)OCCO4)c2N)cc1OC`: the IC50 was > 35.9 µM (inactive).
Take `COc1ccc(C(C(=O)NC2CCCCC2)N(C(=O)CCl)c2ccc(OC)cc2)cc1` (stereo unspecified): the IC50 result was “inactive”.

Values taken from PubChem BioAssay AID602168 (The Scripps Research Institute Molecular Screening Center, 2012).
